Test results: patent publication US7618967B2, “Indane compounds” (H. Lundbeck A/S, priority 2006, dated 2009)

Molecular target: NAT Noradrenergic Transporter (Rattus norvegicus, UniProt Q9WTR4)
Test: Measurements of [3H]noradrenaline uptake into rat cortical synaptosomes
Type: biochemical
Experimental: Transporter Inhibition Assays
Measurements of [^3H]Noradrenaline Uptake into Rat Cortical Synaptosomes
The homogenate is centrifuged at 1000×g for 10 min at 4° C. The pellet is discarded and the supernatant is centrifuged at 40.000×g for 20 min. […] Pellet is suspended in 140 volumes of assaybuffer. Tissue is mixed with test compounds and after 10 min pre-incubation, 10 nM [^3H]-noradrenaline is added to a final volume of 0.2 ml and the mixture is incubated for 15 min at 37° C. After 15 min incubation, samples are filtered directly on Unifilter GF/C glass fiber filters (soaked for 30 min in 0.1% polyethylenimine) under vacuum and immediately washed with 1×0.2 mL assay buffer.
Non-specific uptake is determined using talsupram (10 μM final concentration). Duloxetine is included as reference in all experiments as dose-response curve.

NAT Noradrenergic Transporter, sequence (Q9WTR4 6-550 limits assumed): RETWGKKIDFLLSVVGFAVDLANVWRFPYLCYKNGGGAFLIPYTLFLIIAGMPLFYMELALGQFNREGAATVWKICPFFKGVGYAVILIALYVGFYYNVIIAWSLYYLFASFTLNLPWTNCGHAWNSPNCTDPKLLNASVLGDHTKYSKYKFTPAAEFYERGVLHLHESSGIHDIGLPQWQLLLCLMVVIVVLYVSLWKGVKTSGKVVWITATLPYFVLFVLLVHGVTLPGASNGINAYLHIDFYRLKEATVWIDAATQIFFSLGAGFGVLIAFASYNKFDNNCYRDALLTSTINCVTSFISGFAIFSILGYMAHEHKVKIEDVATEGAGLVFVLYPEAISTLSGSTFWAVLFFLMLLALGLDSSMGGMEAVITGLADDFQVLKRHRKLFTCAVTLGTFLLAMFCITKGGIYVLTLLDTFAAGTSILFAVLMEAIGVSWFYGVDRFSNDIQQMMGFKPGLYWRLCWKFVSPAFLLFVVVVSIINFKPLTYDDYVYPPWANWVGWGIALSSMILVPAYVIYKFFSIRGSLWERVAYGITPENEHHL

Compound | IC50
CN[C@@H]1C[C@@H](c2c[nH]c3cc(OC)ccc23)c2ccccc21 [Formula X] | 0.1 to 200 nM
CN[C@@H]1C[C@@H](c2c[nH]c3ccccc23)c2ccccc21 [Formula IX] | 0.1 to 200 nM
CN[C@@H]1C[C@@H](c2c[nH]c3ccc(Cl)cc23)c2ccccc21 [Formula VIII] | 0.1 to 200 nM
